According to patent US20160058751A1, “COMPOSITION AND METHOD FOR TREATING CANCER” (CELLWORKS GROUP, INC., priority 2013, published 2016):
Where two headings read alike, the source gives them in different places.

Columns and labels:
[1] = target: T1, ATP citrate lyase (Homo sapiens, UniProt P53396); settings: cited from earlier work
T1 sequence (P53396 1-1101): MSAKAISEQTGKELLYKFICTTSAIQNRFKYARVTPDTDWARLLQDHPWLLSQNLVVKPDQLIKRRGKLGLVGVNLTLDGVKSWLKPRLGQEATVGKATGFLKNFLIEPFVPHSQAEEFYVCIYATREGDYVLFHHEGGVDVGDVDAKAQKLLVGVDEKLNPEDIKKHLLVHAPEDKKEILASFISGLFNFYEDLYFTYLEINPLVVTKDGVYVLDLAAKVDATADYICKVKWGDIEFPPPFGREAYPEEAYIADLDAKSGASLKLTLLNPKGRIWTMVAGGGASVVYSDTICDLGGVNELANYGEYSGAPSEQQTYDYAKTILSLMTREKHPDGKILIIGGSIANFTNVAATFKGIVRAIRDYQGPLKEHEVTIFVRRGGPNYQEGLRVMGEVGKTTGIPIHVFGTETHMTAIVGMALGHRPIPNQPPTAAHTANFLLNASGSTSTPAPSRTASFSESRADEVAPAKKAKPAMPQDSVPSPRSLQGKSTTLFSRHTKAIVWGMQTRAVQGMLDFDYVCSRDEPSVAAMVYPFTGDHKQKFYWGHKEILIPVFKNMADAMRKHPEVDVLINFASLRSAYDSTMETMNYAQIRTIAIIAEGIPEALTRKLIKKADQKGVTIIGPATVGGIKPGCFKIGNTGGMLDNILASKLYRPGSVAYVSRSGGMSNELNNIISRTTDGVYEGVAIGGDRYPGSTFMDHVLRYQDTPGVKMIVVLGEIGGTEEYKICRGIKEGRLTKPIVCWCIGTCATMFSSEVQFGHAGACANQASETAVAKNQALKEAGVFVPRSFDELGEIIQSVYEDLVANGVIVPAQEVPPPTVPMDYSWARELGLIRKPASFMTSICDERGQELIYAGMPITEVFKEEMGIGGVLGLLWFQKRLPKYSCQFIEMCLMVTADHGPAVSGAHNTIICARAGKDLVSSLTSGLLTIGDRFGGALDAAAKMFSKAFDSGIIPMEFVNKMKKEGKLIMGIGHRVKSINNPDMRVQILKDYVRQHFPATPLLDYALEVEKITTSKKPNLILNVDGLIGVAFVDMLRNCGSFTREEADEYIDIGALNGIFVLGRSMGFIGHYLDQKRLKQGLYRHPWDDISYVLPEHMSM

[2] = rats; cited from earlier work
[3] = system: Hep G2 cells; settings: dose-related; cited from earlier work
[4] = cited from earlier work
[5] = system: HCT116 human colon cancer cell line; assay: CellTiter 96 Aqueous One relative growth assay; settings: for cell viability (FIG. 86): ARQ-197 up to 3 μM; for cell viability (FIG. 86) / cell viability (FIG. 73): Atorvastatin up to 40 μM; for cell viability (FIG. 80): BMS-303141 up to 20 μM, Sorafenib 3 μM and 5 μM; for cell viability (FIG. 73): Sorafenib up to 5 μM
[6] = cited from earlier work; remark: listed apart in the source
[7] = system: SW48 human colon cancer cell line; assay: CellTiter 96 Aqueous One relative growth assay; assay type: cell-based; settings: for cell viability (FIG. 87): ARQ-197 up to 3 μM, Atorvastatin up to 40 μM; for cell viability (FIG. 81): BMS-303141 up to 20 μM, Sorafenib 3 μM and 5 μM; for cell viability (FIG. 75): Sorafenib up to 5 μM, Atorvastatin up to 10 μM
Excerpt: The SW48 human colon cancer cell line was procured from ATCC (American Type Culture Collection, Manassas, Va.).

[8] = system: A549 human lung cancer cell line; assay: CellTiter 96 Aqueous One relative growth assay; assay type: cell-based; settings: for cell viability (FIG. 84) / cell viability (FIG. 90): ARQ-197 up to 3 μM; for cell viability (FIG. 84) / cell viability (FIG. 71): Atorvastatin up to 40 μM; for cell viability (FIG. 90) / cell viability (FIG. 78): BMS-303141 up to 20 μM; for relative growth percentage: BMS-303141 20 μM, alone or both; for cell viability (FIG. 78): Sorafenib 3 μM and 5 μM; for cell viability (FIG. 71): Sorafenib up to 5 μM
[9] = system: CaCo-2; settings: cited from earlier work
[10] = cited from earlier work; remark: listed apart in the source
[11] = system: H1650 human lung cancer cell line; assay: CellTiter 96 Aqueous One relative growth assay; assay type: cell-based; settings: for cell viability (FIG. 85) / cell viability (FIG. 91): ARQ-197 up to 3 μM; for cell viability (FIG. 85) / cell viability (FIG. 72): Atorvastatin up to 40 μM; for cell viability (FIG. 91) / cell viability (FIG. 79): BMS-303141 up to 20 μM; for relative growth percentage: BMS-303141 20 μM, alone or both; for cell viability (FIG. 79): Sorafenib 3 μM and 5 μM; for cell viability (FIG. 72): Sorafenib up to 5 μM
[12] = multiple species; cited from earlier work
[13] = cited from earlier work; remark: listed apart in the source
[14] = XALKORI 250 mg twice daily, cited from earlier work
[15] = in vivo; cited from earlier work
[16] = system: CaCo-2 human colon cancer cell line; assay: CellTiter 96 Aqueous One relative growth assay; assay type: cell-based; settings: Sorafenib up to 5 μM, Atorvastatin up to 40 μM
[17] = system: CAPAN1 xenograft; assay: mouse xenograft model of CAPAN1
[18] = system: HCT116 xenograft; assay: mouse xenograft model of HCT116
[19] = in vivo, cited from earlier work
[20] = single 250 mg radiolabeled dose, healthy subjects
[21] = single 250 mg radiolabeled dose
[22] = oral 100 mg solution formulation

Compound: O=C(O)C[C@](O)(C[C@@H](O)CCCCCCc1ccc(Cl)cc1Cl)C(=O)O [SB-204990, (2R)-2-[(2S)-8-(2,4-dichlorophenyl)-2-hydroxyoctyl]-2-hydroxybutanedioic Acid]
- direct inhibition of ATP citrate-lyase [1]: does not inhibit
- inhibition of cholesterol synthesis [2]: 76%
- inhibition of fatty acid synthesis [2]: 39%
- inhibition of cholesterol synthesis [3]: up to 91%
- inhibition of fatty acid synthesis [3]: ≤ 82%

Compound: [O-][n+]1ccccc1 [pyridine N-oxide]
- share of the circulating analytes in plasma at steady-state [4]: 9-16%

Compound: O=C(O)C[C@@](O)(C[C@@H](O)CCCCCCc1ccc(Cl)cc1Cl)C(=O)O [SB-201076, (2S)-2-[(2S)-8-(2,4-dichlorophenyl)-2-hydroxyoctyl]-2-hydroxybutanedioic Acid]
- Ki ([1]; competitive inhibitor, humans): 1000 nM

Compound: Cn1cncc1[C@@](N)(c1ccc(Cl)cc1)c1ccc2c(c1)c(-c1cccc(Cl)c1)cc(=O)n2C [Tipifamib, 6-[(R)-amino-(4-chlorophenyl)-(3-methylimidazol-4-yl)methyl]-4-(3-chlorophenyl)-1-methylquinolin-2-one]
- decrease in relative growth ([5]; Tipifamib 3 μM, Crizotinib 8 μM, alone or combined, about 66 hours): ~22%
- absolute oral bioavailability ([6]; healthy volunteers, fed conditions): 34%
- Half-life ([6]; in vivo): 2 to 5 h
- urinary excretion of unchanged drug or its metabolites, of total dose ([6]; in vivo): 13.7%
- time to maximum plasma concentrations ([6]; oral administration): two to three
- decrease in clearance ([6]; two-fold increase in bilirubin concentration): 6.9%

Compound: O=C1NC(=O)[C@@H](c2cn3c4c(cccc24)CCC3)[C@@H]1c1c[nH]c2ccccc12 [ARQ-197, (3R,4R)-3-(5,6-dihydro-4H-pyrrolo[3,2,1-ij]quinolin-1-yl)-4-(1H-indol-3-yl)pyrrolidine-2,5-dione]
- cell viability (FIG. 87) [7]: most pronounced
- cell viability (FIG. 84) [8]: a decrease
- cell viability (FIG. 90) [8]: minor decrease
- permeability (CaCo-2 flux data) [9]: good permeability
- cell viability (FIG. 86) [5]: small decrease
- mean terminal half-life (t1/2), tivantinib in plasma [10]: 11.7 h
- median time to maximal concentration (tmax), tivantinib in plasma [10]: 4 h
- cell viability (FIG. 85) [11]: negligible effect
- cell viability (FIG. 91) [11]: minor decrease
- oral bioavailability [12]: greater than 20%

Compound: COc1ccc(-c2ccccc2)cc1NS(=O)(=O)c1cc(Cl)cc(Cl)c1O [BMS-303141, 3,5-Dichloro-2-hydroxy-N-(4-methoxy-[1,1′-biphenyl]-3-yl)-benzenesulfonamide]
- cell viability (FIG. 81) [7]: minimal decrease
- relative growth percentage ([7]; Sorafenib 5 μM, BMS-303141 20 μM, alone or both, about 68 hours): about 78%
- relative growth percentage ([8]; ARQ-197 3 μM, about 66 hours): about 105%
- cell viability (FIG. 90) [8]: minor decrease
- cell viability (FIG. 78) [8]: negligible decrease
- relative growth percentage ([8]; Sorafenib 5 μM, about 68 hours): about 105%
- cell viability (FIG. 80) [5]: a decrease
- relative growth percentage ([5]; Sorafenib 5 μM, BMS-303141 20 μM, alone or both, about 66 hours): about 54%
- relative growth percentage ([11]; ARQ-197 3 μM, about 66 hours): about 76%
- cell viability (FIG. 91) [11]: minor decrease
- cell viability (FIG. 79) [11]: minor decrease
- relative growth percentage ([11]; Sorafenib 5 μM, about 68 hours): about 76%

Compound: C[C@@H](Oc1cc(-c2cnn(C3CCNCC3)c2)cnc1N)c1c(Cl)ccc(F)c1Cl [Crizotinib, 3-[(1R)-1-(2,6-dichloro-3-fluorophenyl)ethoxy]-5-(1-piperidin-4-ylpyrazol-4-yl)pyridin-2-amine]
- time to steady state ([13]; 250 mg twice daily): ≤ 15 days
- reduction of AUCinf by a high-fat meal ([13]; high-fat meal): approximately 14%
- reduction of Cmax by a high-fat meal ([13]; high-fat meal): approximately 14%
- mean absolute bioavailability ([13]; single 250 mg oral dose): 43%
- mean apparent clearance (CL/F) ([13]; single 250 mg oral dose): 100 L/h
- administered dose recovered in feces [13, 20]: 63%
- administered dose recovered in urine [13, 20]: 22%
- unchanged crizotinib in feces, of administered dose [13, 21]: approximately 53%
- unchanged crizotinib in urine, of administered dose [13, 21]: ~2.3%
- mean apparent clearance (CL/F) ([13]; steady state after 250 mg twice daily): 60 L/h
- patients with QTcF greater than or equal to 500 msec ([14]; 16 of 1167 patients): 1.4%
- patients with increase from baseline QTcF greater than or equal to 60 msec ([14]; 51 of 1136 patients): 4.4%

Compound: CCC(C)(C)C(=O)O[C@H]1C[C@@H](C)C=C2C=C[C@H](C)[C@H](CC[C@@H]3C[C@@H](O)CC(=O)O3)[C@H]21 [Simvastatin, [(1S,3R,7S,8S,8aR)-8-[2-[(2R,4R)-4-hydroxy-6-oxooxan-2-yl]ethyl]-3,7-dimethyl-1,2,3,7,8,8a-hexahydronaphthalen-1-yl]2,2-dimethylbutanoate]
- Half-life [15]: 3 h

Compound: CNC(=O)c1cc(Oc2ccc(NC(=O)Nc3ccc(Cl)c(C(F)(F)F)c3)cc2)ccn1 [Sorafenib, 4-[4-[[4-chloro-3-(trifluoromethyl)phenyl]carbamoylamino]phenoxy]-N-methylpyridine-2-carboxamide]
- cell viability (FIG. 81) [7]: minimal decrease
- cell viability (FIG. 75) [7]: negligible effect
- cell viability (FIG. 78) [8]: negligible decrease
- cell viability (FIG. 71) [8]: negligible decrease
- cell viability (FIG. 80) [5]: a decrease
- cell viability (FIG. 73) [5]: insignificant decrease
- cell viability (FIG. 79) [11]: minor decrease
- cell viability (FIG. 72) [11]: negligible decrease
- bioavailability reduced by ([4]; high-fat meal compared to fasted state): about 29%
- Half-life ([4]; in vivo): 25 to 48 h
- dose excreted in feces [4, 22]: 77%
- dose excreted in urine as glucuronidated metabolites [4, 22]: 19%
- dose recovered ([4]; oral 100 mg solution formulation, within 14 days): 96%
- share of the circulating analytes in plasma at steady-state [4]: 70-85%
- cell viability (FIG. 74) [16]: negligible effect
- body weight [17]: not significantly affected
- survival (Kaplan-Meier survival curve) [17]: slightly prolonged survival rates
- body weight [18]: not significantly affected
- survival (Kaplan-Meier survival curve) [18]: prolonged survival rates
- inhibition of tumor volume / tumor growth ([18]; at 19 days): 16%

Compound: CC(C)c1c(C(=O)Nc2ccccc2)c(-c2ccccc2)c(-c2ccc(F)cc2)n1CC[C@@H](O)C[C@@H](O)CC(=O)O [Atorvastatin, (3R,5R)-7-[2-(4-fluorophenyl)-3-phenyl-4-(phenylcarbamoyl)-5-propan-2-ylpyrrol-1-yl]-3,5-dihydroxyheptanoic acid]
- cell viability (FIG. 87) [7]: a decrease
- cell viability (FIG. 75) [7]: negligible effect
- cell viability (FIG. 84) [8]: a decrease
- cell viability (FIG. 71) [8]: negligible decrease
- cell viability (FIG. 86) [5]: small decrease
- cell viability (FIG. 73) [5]: insignificant decrease
- orally administered dose recovered in urine ([19]; po): Less than 2%
- circulating inhibitory activity for HMG-CoA reductase attributed to active metabolites [19]: Approximately 70%
- systemic availability of the HMG-CoA reductase inhibitory activity [19]: approximately 30%
- cell viability (FIG. 85) [11]: negligible effect
- cell viability (FIG. 72) [11]: negligible decrease
